Measured values taken from paper PMC4045134, “Discovery of Triterpenoids as Reversible Inhibitors of α/β-hydrolase Domain Containing 12 (ABHD12)” (PLoS ONE, 2014).
Entries after “also recorded” stand apart in the source; their conditions may differ.

Columns and labels:
Assay type in all cases: biochemical
hABHD12 [1] = molecular target: T1, hABHD12 (Homo sapiens, UniProt Q8N2K0); test: Fluorescent glycerol assay of 1-AG hydrolysis in hABHD12-HEK293 lysates; settings: hABHD12-HEK293 lysates
T1 construct: expressed in transfected cells; host or cells: HEK293 (transient)
T1 sequence (Q8N2K0 1-398): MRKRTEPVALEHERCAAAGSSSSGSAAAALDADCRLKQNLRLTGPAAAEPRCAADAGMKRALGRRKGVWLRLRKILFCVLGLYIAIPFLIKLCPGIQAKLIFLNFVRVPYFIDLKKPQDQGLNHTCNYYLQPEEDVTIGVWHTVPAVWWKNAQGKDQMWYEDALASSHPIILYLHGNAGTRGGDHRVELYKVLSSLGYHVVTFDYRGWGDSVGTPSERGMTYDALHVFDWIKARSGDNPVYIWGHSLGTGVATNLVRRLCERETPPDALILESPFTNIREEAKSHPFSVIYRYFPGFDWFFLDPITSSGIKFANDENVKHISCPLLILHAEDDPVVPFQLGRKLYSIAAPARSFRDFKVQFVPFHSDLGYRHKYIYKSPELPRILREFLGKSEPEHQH

hABHD6 = molecular target: T2, hABHD6 (Homo sapiens, UniProt Q9BV23); test: Fluorescent glycerol assay in hABHD6-HEK293 lysates; settings: 10 µM; NI = no inhibition at 10 µM; read-out: hABHD6 Remaining activity % control ± s.e.m (n=3)
T2 construct: expressed in transfected cells; host or cells: HEK293 (transient)
T2 sequence (Q9BV23 1-337): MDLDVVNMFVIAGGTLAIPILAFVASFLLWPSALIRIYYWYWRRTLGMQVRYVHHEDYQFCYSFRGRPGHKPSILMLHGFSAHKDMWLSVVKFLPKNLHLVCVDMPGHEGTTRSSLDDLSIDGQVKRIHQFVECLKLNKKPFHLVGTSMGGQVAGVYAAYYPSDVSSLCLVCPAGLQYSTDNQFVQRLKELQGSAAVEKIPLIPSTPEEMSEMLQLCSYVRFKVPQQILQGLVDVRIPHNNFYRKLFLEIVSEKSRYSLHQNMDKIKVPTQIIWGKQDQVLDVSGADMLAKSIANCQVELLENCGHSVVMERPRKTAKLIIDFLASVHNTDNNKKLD
Experimental: Glycerol liberated from 1-AG hydrolysis was determined with a sensitive fluorescent assay using lysates of HEK293 cells with transient overexpression of hABHD12, hABHD6 or hMAGL, essentially as previously described. […] Fluorescence (λex 530; λem 590 nm) was monitored using a Tecan Infinite M200 plate reader (Tecan Group Ltd., Männedorf, Switzerland). Inhibitory activities of selected compounds towards FAAH were determined using membranes of hFAAH overexpressing COS-7 cells, essentially as previously described. The final incubation volume (100 µL) contained 1 µg of protein and the substrate concentration was 20 µM (10 nM of ^3H-anandamide having specific activity of 60 Ci/mmol and concentration of 1 mCi/mL).

ABHD12 = molecular target: T3, ABHD12 (Mus musculus, UniProt Q99LR1); test: Competitive ABPP with TAMRA-FP in mouse brain membrane proteome; settings: mouse brain membranes, 1 h inhibitor, 1 h probe
T3 construct: the sole serine hydrolase targeted by the triterpenoids in native brain membrane proteome; from tissue; host or cells: mouse whole-brain membranes
T3 sequence (Q99LR1 1-398): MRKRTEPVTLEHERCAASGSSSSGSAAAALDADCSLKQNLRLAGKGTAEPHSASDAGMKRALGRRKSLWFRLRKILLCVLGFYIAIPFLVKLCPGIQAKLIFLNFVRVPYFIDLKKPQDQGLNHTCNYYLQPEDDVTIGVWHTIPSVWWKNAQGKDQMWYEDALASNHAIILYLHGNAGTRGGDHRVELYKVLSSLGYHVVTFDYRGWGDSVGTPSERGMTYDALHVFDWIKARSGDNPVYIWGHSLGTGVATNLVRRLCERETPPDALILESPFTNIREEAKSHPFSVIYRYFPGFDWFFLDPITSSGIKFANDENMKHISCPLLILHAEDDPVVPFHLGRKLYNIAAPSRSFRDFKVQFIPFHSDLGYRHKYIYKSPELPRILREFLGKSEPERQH
Experimental: Competitive ABPP using HEK293 cell lysates and mouse brain membranes was conducted to visualize effects of selected triterpenoids on the binding of the active site serine-targeting fluorescent fluorophosphonate probe TAMRA-FP following outlines of previous protocols, [31]. Briefly, lysates (25 µg) of HEK293 cells with or without (Mock) hABHD12 overexpression or mouse wholebrain membranes (100 µg) were treated for 1 h with DMSO or the inhibitor, after which TAMRA-FP labelling was conducted for 5 min (lysates) or 1 hour (membranes) at RT (final probe concentration 2 µM). The reaction was quenched by addition of gel loading buffer (followed by boiling for 5 min in the case of lysates), after which 10 µg protein (10 µl) was loaded per lane and the proteins were resolved in 10% SDS-PAGE together with standards. TAMRA-FP labeling was visualized (λex 552; λem 575 nm) by a fluorescent reader (FLA-3000 laser fluorescence scanner, Fujifilm, Tokyo, Japan). The intensity of bands was quantified using ImageJ, a freely available image analysis software (http://rsbweb.nih.gov/ij/).
For ABPP experiments (Figure 6C) and cannabinoid receptor activity assays (Table S2), membranes prepared from brain tissue of 4-week-old male rodents were used. The animals were obtained from the National Laboratory Animal Centre, University of Eastern Finland. Approval for the harvesting of animal tissue was obtained from the local welfare officer of the University of Eastern Finland.

hABHD12 [2] = molecular target: T1, hABHD12; test: Reversibility testing, 40-fold dilution of enzyme-inhibitor complex; settings: time points 10, 20, 30, 60 and 90 min
Experimental: Reversibility testing was carried out as previously described. Briefly, DMSO/inhibitor (0.5 µl) was incubated together with hABHD12-HEK293 lysate (4.5 µl, 0.3 µg protein/well) in TEMN-BSA buffer for 30 min. After this, a 40-fold dilution of enzyme-inhibitor complex was brought about by addition of the substrate [1-AG, 12.5 µM final concentration, containing additionally 1% EtOH (v/v)] in 195 µl of glycerol assay mix and fluorescence was kinetically monitored at 10 min intervals for 90 min at RT.

Q: For `CC1(C)CC[C@]2(C(=O)O)CC[C@]3(C)C(=CC[C@@H]4[C@@]5(C)C[C@@H](O)[C@H](O)C(C)(C)[C@@H]5CC[C@]43C)[C@@H]2C1` [Compound 8, Maslinic acid, reference compound], which IC50 (hABHD12 [1]; three independent experiments, read-out: -logIC50±s.e.m. (converted)) is on record?
A: The IC50 was 1.26 µM.

Q: And the Emax (hABHD12 [1]; read-out: max inhibition (converted))?
A: The Emax was 89%.

Q: What about the remaining activity at 10 µM (hABHD6) of the same molecule?
A: Its remaining activity at 10 µM is over 100%.

Q: What about the “TAMRA-FP probe labeling of ABHD12” value (ABHD12) of the same molecule?
A: Its value is “selectively inhibited probe labeling of ABHD12; also recorded: dose-dependently inhibit TAMRA-FP labeling of ABHD12 already at 20 µM”.

Q: What about the “time-dependency of inhibitor potency (IC50) after 40-fold dilution” value (hABHD12 [2]) of the same molecule?
A: The value was “time-dependent drop of inhibitor potency”.
